Measurements reported in ChEMBL document CHEMBL1156506, “Changes to the HIV long terminal repeat and to HIV integrase differentially impact HIV integrase assembly, activity, and the binding of strand transfer inhibitors” (J Biol Chem, 2007).

What was measured:
[1] = tested on: Human immunodeficiency virus; assay: Inhibition of HIV wild type integrase assessed as strand transfer activity using U5 GTTC LTR by scintillation proximity assay relative to wild type LTR; parameters: scale not given: the % may be the effect or the level left; conditions: tested as the 3H-labelled form
[2] = tested on: Human immunodeficiency virus; assay: Binding affinity to HIV wild type integrase using U5 GTTC LTR relative to wild type LTR; conditions: tested as the 3H-labelled form
[3] = tested on: Human immunodeficiency virus; assay: Inhibition of HIV wild type integrase assessed as strand transfer activity using U5 GTGC LTR by scintillation proximity assay relative to wild type LTR; parameters: scale not given: the % may be the effect or the level left; conditions: tested as the 3H-labelled form
[4] = tested on: Human immunodeficiency virus; assay: Binding affinity to HIV wild type integrase using U5 GTCAGT LTR relative to wild type LTR; conditions: tested as the 3H-labelled form
[5] = tested on: Human immunodeficiency virus type 1 integrase (Human immunodeficiency virus 1), Q7ZJM1 [N155H]; assay: Binding affinity to HIV recombinant integrase N155H mutant using U5 dTCA LTR relative to wild type LTR; conditions: tested as the 3H-labelled form
[6] = tested on: Human immunodeficiency virus type 1 integrase (Human immunodeficiency virus 1), Q7ZJM1 [N155H]; assay: Binding affinity to HIV recombinant integrase N155H mutant using U5 TTCA LTR relative to wild type LTR; conditions: tested as the 3H-labelled form
[7] = tested on: Human immunodeficiency virus type 1 integrase (Human immunodeficiency virus 1), Q7ZJM1 [N155H]; assay: Inhibition of HIV recombinant integrase N155H mutant assessed as specific strand transfer activity using U5 GTCA LTR by scintillation proximity assay relative to wild type LTR; parameters: scale not given: the % may be the effect or the level left; conditions: tested as the 3H-labelled form
[8] = tested on: Human immunodeficiency virus type 1 integrase (Human immunodeficiency virus 1), Q7ZJM1 [N155H]; assay: Inhibition of HIV recombinant integrase N155H mutant assessed as specific strand transfer activity using U5 GTC LTR by scintillation proximity assay relative to wild type LTR; parameters: scale not given: the % may be the effect or the level left; conditions: tested as the 3H-labelled form
[9] = Inhibition of HIV wild type integrase DNA complex; parameters: species or system Human immunodeficiency virus
[10] = tested on: Human immunodeficiency virus; assay: Binding affinity to HIV wild type integrase using U5 GTCA LTR relative to wild type LTR; conditions: tested as the 3H-labelled form
[11] = tested on: Human immunodeficiency virus; assay: Inhibition of HIV wild type integrase assessed as strand transfer activity using U5 GTCC LTR by scintillation proximity assay relative to wild type LTR; parameters: scale not given: the % may be the effect or the level left; conditions: tested as the 3H-labelled form
[12] = tested on: Human immunodeficiency virus; assay: Binding affinity to HIV wild type integrase using U5 GTCC LTR relative to wild type LTR; conditions: tested as the 3H-labelled form
[13] = tested on: Human immunodeficiency virus; assay: Inhibition of HIV wild type integrase assessed as strand transfer activity using U5 GTCACA LTR by scintillation proximity assay relative to wild type LTR; parameters: scale not given: the % may be the effect or the level left; conditions: tested as the 3H-labelled form
[14] = tested on: Human immunodeficiency virus; assay: Inhibition of HIV wild type integrase assessed as strand transfer activity using U5 GTGT LTR by scintillation proximity assay relative to wild type LTR; parameters: scale not given: the % may be the effect or the level left; conditions: tested as the 3H-labelled form
[15] = tested on: Human immunodeficiency virus type 1 integrase (Human immunodeficiency virus 1), Q7ZJM1 [N155H]; assay: Inhibition of HIV recombinant integrase N155H mutant assessed as strand transfer activity using U5 TTCA LTR by scintillation proximity assay relative to wild type LTR; parameters: scale not given: the % may be the effect or the level left; conditions: tested as the 3H-labelled form
[16] = tested on: Human immunodeficiency virus type 1 integrase (Human immunodeficiency virus 1), Q7ZJM1 [N155H]; assay: Binding affinity to HIV recombinant integrase N155H mutant using U5 GTCA LTR relative to wild type LTR; conditions: tested as the 3H-labelled form
[17] = tested on: Human immunodeficiency virus type 1 integrase (Human immunodeficiency virus 1), Q7ZJM1 [N155H]; assay: Inhibition of HIV recombinant integrase N155H mutant assessed as specific strand transfer activity using U5 GddA LTR by scintillation proximity assay relative to wild type LTR; parameters: scale not given: the % may be the effect or the level left; conditions: tested as the 3H-labelled form
[18] = tested on: Human immunodeficiency virus type 1 integrase (Human immunodeficiency virus 1), Q7ZJM1 [Q148R]; assay: Binding affinity to HIV recombinant integrase Q148R mutant using U5 TTCA LTR relative to wild type LTR; conditions: tested as the 3H-labelled form
[19] = tested on: Human immunodeficiency virus type 1 integrase (Human immunodeficiency virus 1), Q7ZJM1 [Q148R]; assay: Inhibition of U5 GTCA LTR HIV recombinant integrase Q148R mutant assessed as specific strand transfer activity using by scintillation proximity assay relative to wild type LTR; parameters: scale not given: the % may be the effect or the level left; conditions: tested as the 3H-labelled form
[20] = tested on: Human immunodeficiency virus type 1 integrase (Human immunodeficiency virus 1), Q7ZJM1 [Q148R]; assay: Inhibition of U5 GTdA LTR HIV recombinant integrase Q148R mutant assessed as specific strand transfer activity using by scintillation proximity assay relative to wild type LTR; parameters: scale not given: the % may be the effect or the level left; conditions: tested as the 3H-labelled form
[21] = tested on: Human immunodeficiency virus type 1 integrase (Human immunodeficiency virus 1), Q7ZJM1 [Q148R]; assay: Inhibition of U5 TTCA LTR HIV recombinant integrase Q148R mutant assessed as specific strand transfer activity using by scintillation proximity assay relative to wild type LTR; parameters: scale not given: the % may be the effect or the level left; conditions: tested as the 3H-labelled form
[22] = tested on: Human immunodeficiency virus type 1 integrase (Human immunodeficiency virus 1), Q7ZJM1 [Q148R]; assay: Inhibition of U5 ApTCA LTR HIV recombinant integrase Q148R mutant assessed as specific strand transfer activity using by scintillation proximity assay relative to wild type LTR; parameters: scale not given: the % may be the effect or the level left; conditions: tested as the 3H-labelled form
[23] = tested on: Human immunodeficiency virus; assay: Inhibition of HIV wild type integrase assessed as strand transfer activity using U5 GdCA LTR by scintillation proximity assay relative to wild type LTR; parameters: scale not given: the % may be the effect or the level left; conditions: tested as the 3H-labelled form
[24] = tested on: Human immunodeficiency virus; assay: Binding affinity to HIV wild type integrase using U5 GTC LTR relative to wild type LTR; conditions: tested as the 3H-labelled form
[25] = tested on: Human immunodeficiency virus; assay: Binding affinity to HIV wild type integrase using U5 GdCA LTR relative to wild type LTR; conditions: tested as the 3H-labelled form
[26] = tested on: Human immunodeficiency virus; assay: Inhibition of HIV wild type integrase assessed as strand transfer activity using U5 GInCA LTR by scintillation proximity assay relative to wild type LTR; parameters: scale not given: the % may be the effect or the level left; conditions: tested as the 3H-labelled form
[27] = tested on: Human immunodeficiency virus; assay: Binding affinity to HIV wild type integrase using U5 ApTCA LTR relative to wild type LTR; conditions: tested as the 3H-labelled form
[28] = tested on: Human immunodeficiency virus; assay: Binding affinity to HIV wild type integrase using U5 GTAA LTR relative to wild type LTR; conditions: tested as the 3H-labelled form
[29] = tested on: Human immunodeficiency virus; assay: Binding affinity to HIV wild type integrase using U5 GTAG LTR relative to wild type LTR; conditions: tested as the 3H-labelled form
[30] = tested on: Human immunodeficiency virus; assay: Binding affinity to HIV wild type integrase using U5 GTAC LTR relative to wild type LTR; conditions: tested as the 3H-labelled form
[31] = tested on: Human immunodeficiency virus; assay: Binding affinity to HIV wild type integrase using U5 GCCA LTR relative to wild type LTR; conditions: tested as the 3H-labelled form
[32] = tested on: Human immunodeficiency virus; assay: Binding affinity to HIV wild type integrase using U5 GGCA LTR relative to wild type LTR; conditions: tested as the 3H-labelled form
[33] = tested on: Human immunodeficiency virus; assay: Inhibition of HIV wild type integrase assessed as strand transfer activity using U5 TTCA LTR by scintillation proximity assay relative to wild type LTR; parameters: scale not given: the % may be the effect or the level left; conditions: tested as the 3H-labelled form
[34] = tested on: Human immunodeficiency virus; assay: Binding affinity to HIV wild type integrase using U5 TTCA LTR relative to wild type LTR; conditions: tested as the 3H-labelled form
[35] = tested on: Human immunodeficiency virus; assay: Inhibition of HIV wild type integrase assessed as strand transfer activity U5 CTCA LTR by scintillation proximity assay relative to wild type LTR; parameters: scale not given: the % may be the effect or the level left; conditions: tested as the 3H-labelled form
[36] = tested on: Human immunodeficiency virus; assay: Binding affinity to HIV wild type integrase using U5 GTCA/CC LTR relative to wild type LTR; conditions: tested as the 3H-labelled form
[37] = tested on: Human immunodeficiency virus; assay: Inhibition of HIV wild type integrase assessed as specific strand transfer activity using U5 GTC LTR by scintillation proximity assay relative to wild type LTR; parameters: scale not given: the % may be the effect or the level left; conditions: tested as the 3H-labelled form
[38] = tested on: Human immunodeficiency virus; assay: Inhibition of HIV wild type integrase assessed as specific strand transfer activity using U5 GTdA LTR by scintillation proximity assay relative to wild type LTR; parameters: scale not given: the % may be the effect or the level left; conditions: tested as the 3H-labelled form
[39] = tested on: Human immunodeficiency virus; assay: Inhibition of HIV wild type integrase assessed as specific strand transfer activity using U5 GdCA LTR by scintillation proximity assay relative to wild type LTR; parameters: scale not given: the % may be the effect or the level left; conditions: tested as the 3H-labelled form
[40] = tested on: Human immunodeficiency virus; assay: Inhibition of HIV wild type integrase assessed as specific strand transfer activity using U5 TTCA LTR by scintillation proximity assay relative to wild type LTR; parameters: scale not given: the % may be the effect or the level left; conditions: tested as the 3H-labelled form
[41] = tested on: Human immunodeficiency virus; assay: Inhibition of HIV wild type integrase assessed as specific strand transfer activity using U5 INTCA LTR by scintillation proximity assay relative to wild type LTR; parameters: scale not given: the % may be the effect or the level left; conditions: tested as the 3H-labelled form
[42] = tested on: Human immunodeficiency virus; assay: Inhibition of HIV wild type integrase assessed as specific strand transfer activity using U5 ApTCA LTR by scintillation proximity assay relative to wild type LTR; parameters: scale not given: the % may be the effect or the level left; conditions: tested as the 3H-labelled form
[43] = tested on: Human immunodeficiency virus; assay: Inhibition of HIV wild type integrase assessed as specific strand transfer activity using U5 GddA LTR by scintillation proximity assay relative to wild type LTR; parameters: scale not given: the % may be the effect or the level left; conditions: tested as the 3H-labelled form
[44] = tested on: Human immunodeficiency virus; assay: Inhibition of HIV wild type integrase assessed as specific strand transfer activity using U5 GTAA LTR by scintillation proximity assay relative to wild type LTR; parameters: scale not given: the % may be the effect or the level left; conditions: tested as the 3H-labelled form
[45] = tested on: Human immunodeficiency virus type 1 integrase (Human immunodeficiency virus 1), Q7ZJM1 [N155H]; assay: Inhibition of HIV recombinant integrase N155H mutant assessed as strand transfer activity using U5 dTCA LTR by scintillation proximity assay relative to wild type LTR; parameters: scale not given: the % may be the effect or the level left; conditions: tested as the 3H-labelled form

For `Cn1c(N2CCCCS2(=O)=O)nc(C(=O)NCc2ccc(F)cc2)c(O)c1=O` [BMS-707035], the Activity [1] was 25%, the Activity [2] was 25% and the Activity [3] was 25%. For the same molecule, the Activity [4] was 75%, the Activity [5] was 2% and the Activity [6] was 1%. It also gave an Activity [7] of 82%, an Activity [8] of 107% and a Ki [9] of 0.017 µM. It also gave an Activity [10] of 75%, an Activity [11] of 75% and an Activity [12] of 75%. For the same molecule, the Activity [13] was 75%, the Activity [14] was 25% and the Activity [15] was 4%. It also gave an Activity [16] of 10%, an Activity [17] of 3% and an Activity [18] of 1%. For the same molecule, the Activity [19] was 93%, the Activity [20] was > 50% and the Activity [21] was > 80%. The Activity [22] was > 8%, the Activity [23] was 70% and the Activity [24] was 59%. For the same molecule, the Activity [25] was 40%, the Activity [26] was 70% and the Activity [27] was 24%. For the same molecule, the Activity [28] was 22%, the Activity [29] was < 25% and the Activity [30] was < 25%. The Activity [31] was 75%, the Activity [32] was < 25% and the Activity [33] was 25%. It also gave an Activity [34] of 8%, an Activity [35] of 40% and an Activity [36] of 75%. For the same molecule, the Activity [37] was 100%, the Activity [38] was 42% and the Activity [39] was 103%. It also gave an Activity [40] of 154%, an Activity [41] of 167% and an Activity [42] of 40%. For the same molecule, the Activity [43] was 3%, the Activity [44] was 52% and the Activity [45] was 2%.
